Experimental data published in ChEMBL document CHEMBL5032498, “Discovery of Potent and Broad-Spectrum Pyrazolopyridine-Containing Antivirals against Enteroviruses D68, A71, and Coxsackievirus B3 by Targeting the Viral 2C Protein” (J Med Chem, 2021).

Tests used:
[1] = Selectivity index, ratio of CC50 for human RD cells to EC50 for Enterovirus D68 US/KY/14-18953 in human RD cells; format: toxicity, cell-based; settings: read-out: Ratio CC50/EC50
[2] = Cytotoxicity against human RD cells incubated for 3 days by neutral red uptake method; format: cell-based, Rhabdomyosarcoma cell; settings: time 3 day
enterovirus D68 [3] = test: Anti-viral activity against Enterovirus D68 US/KY/14-18953 infected in human RD cells assessed as reduction in virus induced cytopathic effect incubated for 3 days by CPE assay; format: functional, organism-based; settings: Enterovirus D, US/KY/14-18953, RD, 72 h
enterovirus D68 [4] = test: Anti-viral activity against Enterovirus D68 US/MO/14-18947 infected in human RD cells assessed as reduction in virus induced cytopathic effect incubated for 3 days by CPE assay; format: functional, organism-based; settings: Enterovirus D, US/MO/14-18947, RD, 72 h
[5] = Cytotoxicity against Enterovirus A71 Tainan/4643/1998 infected human RD cells incubated for 3 days by neutral red uptake method; format: functional; settings: Rhabdomyosarcoma cell, 72 h, time 3 day
[6] = Selectivity index, ratio of CC50 for african green monkey Vero cells to EC50 for Coxsackievirus B3 in green monkey Vero cells; format: toxicity, cell-based; settings: read-out: Ratio CC50/EC50
[7] = Selectivity index, ratio of CC50 for human RD cells to EC50 for Enterovirus A71 Tainan/4643/1998 in human RD cells; format: toxicity, cell-based; settings: read-out: Ratio CC50/EC50
enterovirus D68 [8] = test: Anti-viral activity against Enterovirus D68 US/MO/14-18949 infected in human RD cells assessed as reduction in virus induced cytopathic effect incubated for 3 days by CPE assay; format: functional, organism-based; settings: Enterovirus D, US/MO/14-18949, RD, 72 h
[9] = Cytotoxicity against Enterovirus D68 US/MO/14-18947 infected human RD cells incubated for 3 days by neutral red uptake method; format: functional; settings: Rhabdomyosarcoma cell, 72 h, pooled result: one value given for 4 cell lines, strains, targets or settings, time 3 day
Enterovirus = test: Anti-viral activity against Enterovirus D68 US/MO/14-18947 infected in human SH-SY5Y cells assessed as inhibition of virus replication by immunofluorescence staining using anti-VPI antibody; format: functional, organism-based; settings: D68 US/MO/14-18947, SH-SY5Y
[10] = Selectivity index, ratio of CC50 for human RD cells to EC50 for Enterovirus A71 MP4 in human RD cells; format: toxicity, cell-based; settings: read-out: Ratio CC50/EC50
enterovirus D68 [11] = test: Anti-viral activity against Enterovirus D68 US/MO/14-18947 infected in human RD cells assessed as inhibition of plaque formation incubated for 3 days by plaque assay based crystal violet staining analysis; format: functional, organism-based; settings: Enterovirus D, US/MO/14-18947, RD, 72 h
Coxsackievirus B3 = test: Anti-viral activity against Coxsackievirus B3 infected in green monkey Vero cells assessed as reduction in virus induced cytopathic effect incubated for 3 days by CPE assay; format: functional, organism-based; settings: Enterovirus B, 72 h
[12] = Cytotoxicity against Enterovirus D68 US/IL/14-18952 infected human RD cells incubated for 3 days by neutral red uptake method; format: functional; settings: Rhabdomyosarcoma cell, 72 h, time 3 day
[13] = Selectivity index, ratio of CC50 for human RD cells to EC50 for Enterovirus A71 USA/CT/2016-19519 infected in human RD cells; format: toxicity, cell-based; settings: read-out: Ratio CC50/EC50
[14] = Cytotoxicity against Enterovirus A71 MP4 infected human RD cells incubated for 3 days by neutral red uptake method; format: functional; settings: Rhabdomyosarcoma cell, 72 h, time 3 day
Enterovirus A71 [15] = test: Anti-viral activity against Enterovirus A71 Tainan/4643/1998 infected in human RD cells assessed as reduction in virus induced cytopathic effect incubated for 3 days by CPE assay; format: functional, organism-based; settings: Enterovirus A, Tainan/4643/1998, RD, 72 h
enterovirus D68 [16] = test: Antiviral activity against Enterovirus D68 US/MO/14-18947 harboring 2C protein D183V/D323G drug resistant mutant by CPE assay followed by viral 2C gene sequencing; format: functional, organism-based; settings: Enterovirus D
enterovirus D68 [17] = test: Anti-viral activity against Enterovirus D68 US/IL/14-18952 infected in human RD cells assessed as reduction in virus induced cytopathic effect incubated for 3 days by CPE assay; format: functional, organism-based; settings: Enterovirus D, US/IL/14-18952, RD, 72 h
Enterovirus A71 [18] = test: Anti-viral activity against Enterovirus A71 MP4 infected in human RD cells assessed as reduction in virus induced cytopathic effect incubated for 3 days by CPE assay; format: functional, organism-based; settings: Enterovirus A, 72 h
enterovirus D68 [19] = test: Anti-viral activity against Enterovirus D68 US/IL/14-18956 infected in human RD cells assessed as reduction in virus induced cytopathic effect incubated for 3 days by CPE assay; format: functional, organism-based; settings: Enterovirus D, US/IL/14-18956, RD, 72 h

## CC(C)n1ncc2c(C(=O)Nc3ccccn3)cc(-c3cccs3)nc21
[1]
  selectivity ratio: > 250
[2]
  CC50 at 72 h: > 50 µM
Enterovirus D68 [3]
  EC50: 0.2 µM
Enterovirus D68 [4]
  EC50: 0.1 µM

## CCC(C)n1ncc2c(C(=O)NCCN(C)C)cc(C3CC3)nc21 (centres undefined)
[5]
  CC50: 40.7 µM

## CNCCNC(=O)c1cc(C)nc2c1cnn2C(C)C
[1]
  selectivity ratio: > 130
[6]
  selectivity ratio: > 214
[7]
  selectivity ratio: > 600

## Cc1cc(C(=O)NCCN(C)C)c2c(C)nn(C(C)(C)C)c2n1
Enterovirus D68 [8]
  EC50: 0.7 µM
[9]
  CC50: 117 µM
Enterovirus
  EC50: 0.34 µM
[10]
  selectivity ratio: 58.3
Enterovirus D68 [11]
  EC50: 0.13 µM
Coxsackievirus B3
  EC50: 2.1 µM
[12]
  CC50: 117 µM
Enterovirus D68 [4]
  EC50: 0.4 µM
[13]
  selectivity ratio: 89.7
[14]
  CC50: 117 µM

## Cc1cc(C(=O)NCCN)c2cnn(C(C)C)c2n1
[1]
  selectivity ratio: > 63.8
[6]
  selectivity ratio: > 78.9
[7]
  selectivity ratio: > 429

## CC(C)c1cc(C(=O)NCCN)c2cnn(C(C)C)c2n1
[2]
  CC50 at 72 h: 170 µM
Enterovirus D68 [3]
  EC50: 0.6 µM

## CC(C)n1ncc2c(C(=O)NCCN(C)C)cc(C(C)(C)C)nc21
[2]
  CC50 at 72 h: 31.4 µM

## CCCn1ncc2c(C(=O)NCCN(C)C)cc(C3CC3)nc21
Enterovirus A71 [15]
  EC50: 2 µM
[2]
  CC50 at 72 h: 57.7 µM

## CC(C)n1ncc2c(C(=O)NCCN(C)C)cc(C3CC3)nc21
Enterovirus D68 [8]
  EC50: 0.1 µM
Enterovirus D68 [16]
  EC50: 1.9 µM
[9]
  CC50: 200 µM
Enterovirus D68 [17]
  EC50: 0.04 µM
[5]
  CC50: 200 µM
Enterovirus A71 [18]
  EC50: 0.1 µM
Enterovirus D68 [11]
  EC50: 0.025 µM
[2]
  CC50 at 72 h: 200 µM
[12]
  CC50: 200 µM
Enterovirus D68 [4]
  EC50: 0.07 µM

## Cc1cc(C(=O)NC2CCN(C)C2)c2cnn(C(C)C)c2n1 (centres undefined)
[1]
  selectivity ratio: > 167
[6]
  selectivity ratio: > 375
[7]
  selectivity ratio: > 600

## CC(C)n1ncc2c(C(=O)NCCN)cc(C3CC3)nc21
[5]
  CC50: 259 µM
Enterovirus A71 [15]
  EC50: 0.4 µM

## CC(C)n1ncc2c(C(=O)NCCCN(C)C)cc(C3CC3)nc21
[6]
  selectivity ratio: > 500
[5]
  CC50: 74.1 µM

## CC(CN)NC(=O)c1cc(C2CC2)nc2c1cnn2C(C)C (centres undefined)
[5]
  CC50: 113 µM
Enterovirus D68 [3]
  EC50: 0.3 µM

## Cc1cc(C(=O)NC2CN(C)C2)c2cnn(C(C)C)c2n1
[1]
  selectivity ratio: > 26.5
[6]
  selectivity ratio: > 78.9
[7]
  selectivity ratio: > 41.1

## Cc1nn(C(C)(C)C)c2nc(C3CC3)cc(C(=O)NCCN(C)C)c12
[2]
  CC50 at 72 h: 45.2 µM

## CC(C)n1ncc2c(C(=O)NCCN)cc(C(C)(C)C)nc21
[2]
  CC50 at 72 h: 24.6 µM

## CN(C)CCNC(=O)c1cc(C2CC2)nc2c1cnn2C
[1]
  selectivity ratio: > 30.6
[2]
  CC50 at 72 h: > 300 µM

## Cc1cc(C(=O)NCCN(C)C)c2cnn(C(C)C)c2n1
[6]
  selectivity ratio: > 1500
[5]
  CC50: 112 µM

## CC(C1CC1)n1ncc2c(C(=O)NCCN(C)C)cc(C3CC3)nc21 (centres undefined)
[5]
  CC50: 28.4 µM

## CCn1ncc2c(C(=O)NCCN(C)C)cc(C3CC3)nc21
[6]
  selectivity ratio: > 167
[5]
  CC50: 263 µM

## CCN(CC)CCNC(=O)c1cc(C2CC2)nc2c1cnn2C(C)C
[5]
  CC50: 89.9 µM

## CNCCCNC(=O)c1cc(C2CC2)nc2c1cnn2C(C)C
[2]
  CC50 at 72 h: 183 µM

## CCn1ncc2c(C(=O)NCCNC)cc(C)nc21
[1]
  selectivity ratio: > 5.1
[2]
  CC50 at 72 h: > 300 µM

## CC(CN(C)C)NC(=O)c1cc(C2CC2)nc2c1cnn2C(C)C (centres undefined)
[6]
  selectivity ratio: > 7500
[2]
  CC50 at 72 h: 72.6 µM

## CC(CN(C)C)NC(=O)c1cc(C(C)C)nc2c1cnn2C(C)C (centres undefined)
[1]
  selectivity ratio: > 100
[7]
  selectivity ratio: > 100

## CNCCNC(=O)c1cc(C(C)C)nc2c1cnn2C(C)C
[1]
  selectivity ratio: > 250
[7]
  selectivity ratio: > 1000

## COCCNC(=O)c1cc(C2CC2)nc2c1cnn2C(C)C
[2]
  CC50 at 72 h: 178 µM

## CCn1ncc2c(C(=O)NCCN(C)C)cc(C)nc21
[1]
  selectivity ratio: > 16.4
[2]
  CC50 at 72 h: > 300 µM

## CC(C)c1cc(C(=O)NCCO)c2cnn(C(C)C)c2n1
[1]
  selectivity ratio: > 10.2
[2]
  CC50 at 72 h: > 100 µM

## CCN(CC)CCCNC(=O)c1cc(C2CC2)nc2c1cnn2C(C)C
[5]
  CC50: 43.8 µM

## CNCCNC(=O)c1cc(C2CC2)nc2c1cnn2C(C)C
Enterovirus D68 [8]
  EC50: 0.2 µM
[6]
  selectivity ratio: > 500
[9]
  CC50: 236 µM
Enterovirus
  EC50: 0.07 µM
Enterovirus D68 [17]
  EC50: 0.2 µM
[5]
  CC50: 236 µM
Enterovirus D68 [19]
  EC50: 0.2 µM
Enterovirus A71 [15]
  EC50: 0.2 µM
Enterovirus D68 [11]
  EC50: 0.077 µM
[2]
  CC50 at 72 h: 236 µM
Coxsackievirus B3
  EC50: 0.2 µM
Enterovirus D68 [4]
  EC50: 0.2 µM
[14]
  CC50: 236 µM

## CC(CN)NC(=O)c1cc(C(C)C)nc2c1cnn2C(C)C (centres undefined)
[2]
  CC50 at 72 h: 118 µM

## CC(C)n1ncc2c(C(=O)NCCN3CCCC3)cc(C3CC3)nc21
Enterovirus A71 [15]
  EC50: 0.2 µM
[2]
  CC50 at 72 h: 46.5 µM

## CC(C)c1cc(C(=O)NCCN(C)C)c2cnn(C(C)C)c2n1
[6]
  selectivity ratio: > 7500
[9]
  CC50: 161 µM
Enterovirus
  EC50: 0.03 µM
Enterovirus D68 [17]
  EC50: 0.03 µM
[5]
  CC50: 161 µM
Enterovirus D68 [19]
  EC50: 0.07 µM
Enterovirus D68 [11]
  EC50: 0.023 µM
[12]
  CC50: 161 µM
[14]
  CC50: 161 µM

## CNCCNC(=O)c1cc(C2CC2)nc2c1c(C)nn2C(C)(C)C
[5]
  CC50: 31.9 µM
